Assay results: patent US11667652B2, “MCL1 inhibitors” (Gilead Sciences, Inc., priority 2019, dated 2023)
Where two headings read alike, the source gives them in different places.

Legend:
MCL1/Bim = MCL1/Bim (Homo sapiens (Human), UniProt Q07820); experiment: MCL1/Bim Binding AlphaLISA Assay; details: recombinant human 6xHis-MCL1 (171-327), biotinylated Bim peptide (51-76)
In short: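 AlphaLISA with 0.0625 nM human 6×His-MCL1 (171-327) and 0.0625 nM biotinylated Bim (51-76) peptide in 20 mM Hepes pH 7.5, 150 mM NaCl, 0.002% Brij 35, 1 mM DTT, 0.01% BSA. Compound preincubated with MCL1 1 h, Bim added 2 h, then acceptor and donor beads 1 h each; % inhibition versus DMSO and no-protein/peptide controls.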

SKBR3 cells = experiment: SKBR3 Cell Viability Assay; type: cell-based; details: CellTiter Glo, read-out: MCL1 CV SKBR3 EC50
In short: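 Viability was measured by CellTiter-Glo luminescence after 72 h at 37° C, 5% CO2. Each well held 6,000 SKBR3 cells in McCoy's 5A/10% FBS dispensed onto serially diluted compound. Percent inhibition is relative to DMSO and 10 μM puromycin controls.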

[1] = Homo sapiens, SK-BR-3, 72 hours

Chain of MCL1/Bim (Q07820 171-327): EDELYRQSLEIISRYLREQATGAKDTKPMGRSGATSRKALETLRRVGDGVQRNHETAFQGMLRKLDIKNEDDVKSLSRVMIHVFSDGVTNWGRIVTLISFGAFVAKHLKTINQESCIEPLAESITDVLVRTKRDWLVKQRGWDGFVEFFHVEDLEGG

COc1nn(C)cc1C(=O)N[S@@]1(=O)=NC(=O)c2ccc3c(c2)N(C[C@@H]2CC[C@H]2[C@@H](OC)/C=C/[C@H](OCCN2CC4(CN(C)C4)C2)[C@H](C)C1)C[C@@]1(CCCc2cc(Cl)ccc21)CO3 [Example 87]
IC50 (MCL1/Bim): 0.19 nM
EC50 (SKBR3 cells; [1]): 1090 nM

CO[C@H]1/C=C/C[C@H](C)[C@@H](C)[S@@](=O)(NC(=O)c2cc3n(c2)CCOC3)=NC(=O)c2ccc3c(n2)N(C[C@@H]2CC[C@H]21)C[C@]1(CO3)C[C@@H]2C[C@@H]2c2cc(Cl)ccc21 [Example 206]
IC50 (MCL1/Bim): 0.23 nM
EC50 (SKBR3 cells; [1]): 142 nM

CO[C@H]1/C=C/C[C@H](C)C[S@@](=O)(NC(=O)c2cc3n(c2)CCOC3)=NC(=O)c2ccc3c(c2)N(C[C@@H]2CC[C@H]21)C[C@]1(CO3)C[C@@H]2C[C@@H]2c2cc(Cl)ccc21 [Example 168]
IC50 (MCL1/Bim): 0.233 nM
EC50 (SKBR3 cells; [1]): 94 nM

CO[C@H]1/C=C/C[C@H](C)C[S@@](=O)(NC(=O)NCC2CC2)=NC(=O)c2ccc3c(c2)N(C[C@@H]2CC[C@H]21)C[C@]1(CO3)C[C@@H]2C[C@@H]2c2cc(Cl)ccc21 [Example 165]
IC50 (MCL1/Bim): 0.18 nM
EC50 (SKBR3 cells; [1]): 369 nM

COc1nn(C)cc1C(=O)N[S@@]1(=O)=NC(=O)c2ccc3c(c2)N(C[C@@H]2CC[C@H]2[C@@H](OC)/C=C/[C@H](OCc2nccn2C)[C@H](C)C1)C[C@@]1(CCCc2cc(Cl)ccc21)CO3 [Example 83]
IC50 (MCL1/Bim): 0.1 nM
EC50 (SKBR3 cells; [1]): 99.1 nM

COc1nn(C)cc1C(=O)N[S@@]1(=O)=NC(=O)c2ccc3c(c2)N(C[C@@H]2CC[C@H]2[C@@](O)(CC(=O)N2CCOCC2)/C=C/C[C@H](C)C1)C[C@@]1(CCCc2cc(Cl)ccc21)CO3 [Example 98]
IC50 (MCL1/Bim): 0.031 nM
EC50 (SKBR3 cells; 72 hours): 73.3 nM

CO[C@H]1/C=C/C[C@H](C)C[S@@](=O)(NC(=O)c2cnn(C)c2)=NC(=O)c2ccc3c(c2)N(C[C@@H]2CC[C@H]21)C[C@]1(CO3)SCCc2cc(Cl)ccc21 [Example 176]
IC50 (MCL1/Bim): 0.06 nM
EC50 (SKBR3 cells; [1]): 72.5 nM

COc1nn(C)cc1C(=O)N[S@@]1(=O)=NC(=O)c2ccc3c(c2)N(C[C@@H]2CC[C@H]2[C@@H](OC)C[C@H]2CC(=O)O[C@@H]2[C@H](C)C1)C[C@@]1(CCCc2cc(Cl)ccc21)CO3 [Example 140]
IC50 (MCL1/Bim): 0.067 nM
EC50 (SKBR3 cells; [1]): 138 nM

COCC#CCO[C@H]1/C=C/[C@H](OC)[C@@H]2CC[C@H]2CN2C[C@@]3(CCCc4cc(Cl)ccc43)COc3ccc(cc32)C(=O)N=[S@](=O)(NC(=O)c2cn(C)nc2OC)C[C@H]1C [Example 75]
IC50 (MCL1/Bim): 0.217 nM
EC50 (SKBR3 cells; [1]): 171 nM

CC[C@H]1C/C=C/[C@H](OC)[C@@H]2CC[C@H]2CN2C[C@@]3(CCCc4cc(Cl)ccc43)COc3ccc(cc32)C(=O)N=[S@](=O)(NC(=O)NC2CC2)C1 [Example 42]
IC50 (MCL1/Bim): 0.253 nM
EC50 (SKBR3 cells; 72 hours): 233 nM

COc1nn(C)cc1C(=O)N[S@@]1(=O)=NC(=O)c2ccc3c(c2)N(C[C@@H]2CC[C@H]2C/C=C/C[C@H](C)C1)C[C@@]1(CCCc2cc(Cl)ccc21)CO3 (mixture of isomers) [Example 130]
IC50 (MCL1/Bim): 0.46 nM
EC50 (SKBR3 cells; 72 hours): 2560 nM

CO[C@H]1/C=C/C[C@H](C)C[S@@](=O)(NC(=O)c2cc3n(c2)CCOC3)=NC(=O)c2ccc3c(n2)N(C[C@@H]2CC[C@H]21)C[C@@]1(CCCc2cc(Cl)ccc21)CO3 [Example 186]
IC50 (MCL1/Bim): 0.07 nM
EC50 (SKBR3 cells; [1]): 26.6 nM

COc1nn(C)cc1C(=O)N[S@@]1(=O)=NC(=O)c2ccc3c(c2)N(C[C@@H]2CC[C@H]2[C@@H](OC)C[C@H]2C[C@H](CCN(C)C)O[C@@H]2[C@H](C)C1)C[C@@]1(CCCc2cc(Cl)ccc21)CO3 [Example 142]
IC50 (MCL1/Bim): 0.06 nM
EC50 (SKBR3 cells; 72 hours): 106 nM

COc1nn(C)cc1C(=O)N[S@@]1(=O)=NC(=O)c2ccc3c(c2)N(C[C@@H]2CC[C@H]2[C@@H](OC)/C=C/[C@@H](OC)[C@H](C)[C@H]1C)C[C@@]1(CCCc2cc(Cl)ccc21)CO3 [Example 69]
IC50 (MCL1/Bim): 2.07 nM
EC50 (SKBR3 cells; 72 hours): 1000 nM

COc1nn(C)cc1C(=O)N[S@@]1(=O)=NC(=O)c2ccc3c(c2)N(C[C@@H]2CC[C@H]2/C=C/C=C\[C@H](C)C1)C[C@@]1(CCCc2cc(Cl)ccc21)CO3 [Example 131]
IC50 (MCL1/Bim): 0.087 nM
EC50 (SKBR3 cells; [1]): 546 nM

COc1nn(C)cc1C(=O)N[S@@]1(=O)=NC(=O)c2ccc3c(n2)N(C[C@@H]2CC[C@H]2[C@@H](OC)/C=C\C[C@H](C)C1)C[C@@]1(CCCc2cc(Cl)ccc21)CO3 [Example 192]
IC50 (MCL1/Bim): 0.03 nM
EC50 (SKBR3 cells; 72 hours): 136 nM

COc1nn(C)cc1C(=O)N[S@@]1(=O)=NC(=O)c2ccc3c(n2)N(C[C@@H]2CC[C@H]2[C@@H](OC)/C=C/C[C@H](C)C1)C[C@@]1(CCCc2cc(Cl)ccc21)CO3 [Example 191]
IC50 (MCL1/Bim): 0.02 nM
EC50 (SKBR3 cells; 72 hours): 36.6 nM

COc1nn(C)cc1C(=O)N[S@@]1(=O)=NC(=O)c2ccc3c(c2)N(C[C@@H]2CC[C@H]2[C@H](OC)[C@@H](OC)/C=C\[C@H](C)C1)C[C@@]1(CCCc2cc(Cl)ccc21)CO3 [Example 132]
IC50 (MCL1/Bim): 0.833 nM
EC50 (SKBR3 cells; [1]): 1020 nM

COc1nn(C)cc1C(=O)N[S@@]1(=O)=NC(=O)c2ccc3c(c2)N(C[C@@H]2CC[C@H]2[C@@H]2/C=C/[C@H](OCCCC(=O)O2)[C@H](C)C1)C[C@@]1(CCCc2cc(Cl)ccc21)CO3 [Example 156]
IC50 (MCL1/Bim): 0.393 nM
EC50 (SKBR3 cells; 72 hours): 368 nM

CO[C@H]1/C=C/C[C@H](C)[C@@H](C)[S@@](=O)(NC(=O)COC2CCOCC2)=NC(=O)c2ccc3c(c2)N(C[C@@H]2CC[C@H]21)C[C@]1(CO3)C[C@@H]2C[C@@H]2c2cc(Cl)ccc21 [Example 169]
IC50 (MCL1/Bim): 0.048 nM
EC50 (SKBR3 cells; [1]): 215 nM

COc1nn(C)cc1C(=O)N[S@@]1(=O)=NC(=O)c2ccc3c(c2)N(C[C@@H]2CC[C@H]2[C@@H](OC)/C=C/[C@H](OCCN2CCN(C4COC4)CC2)[C@H](C)C1)C[C@@]1(CCCc2cc(Cl)ccc21)CO3 [Example 79]
IC50 (MCL1/Bim): 0.062 nM
EC50 (SKBR3 cells; 72 hours): 42.9 nM

COc1nn(C)cc1C(=O)N[S@@]1(=O)=NC(=O)c2ccc3c(c2)N(C[C@@H]2CC[C@H]2[C@@H](OC)C#CC[C@H](C)C1)C[C@@]1(CCCc2cc(Cl)ccc21)CO3 [Example 37]
IC50 (MCL1/Bim): 0.04 nM
EC50 (SKBR3 cells; [1]): 57.7 nM

CO[C@H]1/C=C/C[C@H](C)C[S@@](=O)(NC(=O)[C@H]2C[C@](C)(O)C2)=NC(=O)c2ccc3c(n2)N(C[C@@H]2CC[C@H]21)C[C@@]1(CCCc2cc(Cl)ccc21)CO3 [Example 189]
IC50 (MCL1/Bim): 0.07 nM
EC50 (SKBR3 cells; [1]): 71.8 nM

C=CCO[C@@H]1/C=C/C[C@H](C)C[S@@](=O)(NC(=O)c2cn(C)nc2OC)=NC(=O)c2ccc3c(c2)N(C[C@@H]2CC[C@H]21)C[C@@]1(CCCc2cc(Cl)ccc21)CO3 [Example 55]
IC50 (MCL1/Bim): 0.332 nM
EC50 (SKBR3 cells; 72 hours): 426 nM

COc1nn(C)cc1C(=O)N[S@@]1(=O)=NC(=O)c2ccc3c(c2)N(C[C@@H]2CC[C@H]2[C@@H](OC)C[C@H]2CCO[C@@H]2CC1)C[C@@]1(CCCc2cc(Cl)ccc21)CO3 [Example 160]
IC50 (MCL1/Bim): 0.214 nM
EC50 (SKBR3 cells; [1]): 331 nM

CO[C@H]1/C=C/C[C@H](C)C[S@@](=O)(NC(=O)[C@H]2C[C@@](C)(O)C2)=NC(=O)c2ccc3c(n2)N(C[C@@H]2CC[C@H]21)C[C@@]1(CCCc2cc(Cl)ccc21)CO3 [Example 190]
IC50 (MCL1/Bim): 0.15 nM
EC50 (SKBR3 cells; [1]): 306 nM

COc1nn(C)cc1C(=O)N[S@@]1(=O)=NC(=O)c2ccc3c(c2)N(C[C@@H]2CC[C@H]2[C@@](C)(OC)/C=C/C[C@H](C)C1)C[C@@]1(CCCc2cc(Cl)ccc21)CO3 [Example 95]
IC50 (MCL1/Bim): 4.39 nM
EC50 (SKBR3 cells; [1]): 3630 nM

COc1nn(C)cc1C(=O)N[S@@]1(=O)=NC(=O)c2ccc3c(c2)N(C[C@@H]2CC[C@H]2[C@@](O)(C#CCN(C)C)/C=C/C[C@H](C)C1)C[C@@]1(CCCc2cc(Cl)ccc21)CO3 [Example 108]
IC50 (MCL1/Bim): 0.048 nM
EC50 (SKBR3 cells; 72 hours): 6 nM
